Assay results: US20240322218A1, “DIAMONDOID SALTS AND RELATED COMPOSITIONS” (Wisconsin Alumni Research Foundation, priority 2021, published 2024)

Legend:
[1] = literature (Lassegues et al. 2009); cited from earlier work
[2] = Cyclic voltammetry, cathodic stability / solvent protection; conditions: comparable electrochemical potentials, FIGS. 6 and 7
Description: Included representative data was acquired using a platinum counter electrode, a silver/silver nitrate (Ag/AgNO3) acetonitrile non-aqueous reference electrode, and a variety of working electrodes, which spans a wide-range of standard materials and protocols for electrochemical characterization of ionic liquids and organic plastic crystals. The hardware used was a Biologic potentiostat model SP-300.
A representative procedure using acetonitrile as a solvent and Ag as the working electrode was as follows: • 1. Measure the concentration of water in acetonitrile using Karl Fischer titration. • a. Adjust concentration to ˜1000 ppm water in acetonitrile solvent. • 2. Add diamondoid salt containing electrolyte to make a defined concentration in a 4-dram scintillation vial. • 3. Polish the working electrode using alumina slurry and a polishing pad. • 4. Polish the counter electrode and the Ag wire for the reference electrode. • 5. Clean the electrode surfaces and sonicate for ˜5 seconds. Dry the counter and Ag wire electrode. • 6. Prepare the non-aqueous reference electrode by adding new reference electrolyte consisting of 0.01M AgNO3 and 0.1M tetrabutylammonium tetrafluoroborate (TBA BF4) in acetonitrile. Add the silver wire. • 7. Assemble the electrochemical cell using a custom-printed electrochemical cap by adding the counter, reference, and working electrodes. • 8. […]

[3] = Raman spectroscopy of the TFSI stretching mode; assay type: physicochemical; conditions: for TFSI Raman shift: neat TFSI salt of the cation, 532 nm laser
Description: Raman spectra were taken on a LabRAM HR Evolution Horiba microscope using a 532 nm laser and grating of 1800 gr/mm. All Raman spectra were fitted and processed using Horiba's LabSpec6 software. Samples were sealed in glass slides inside of a nitrogen glove box using paraffin wax before spectra were taken.

[4] = Static 7Li NMR linewidth (lithium mobility) of mixtures with [Li][TFSI]; assay type: physicochemical; conditions: for Peak Width: static 7Li NMR, 0.1 mole fraction [Li][TFSI] mixtures with the TFSI salt of the cation
Description: All NMR measurements were carried out at 11.7 T using a broad band two channel 4 mm standard-bore cross-polarization magic-angle spinning (CP MAS) probe on a Bruker Avance III spectrometer with a proton radio frequency of 500.22 MHz, a ^13C radio frequency of 125.76 MHZ, a ^19F radio frequency 470.66 MHz, and a ^7Li radio frequency 194.40 MHz. The MAS rate was 10 KHz for the CP and ^19F experiments, and static for the ^7Li experiments. 4 mm zirconium rotors with Torlon caps and Viton O-rings were used. Approximately 100 mg of samples was packed into each rotor. All samples were prepared and sealed in a nitrogen glove box. The spinning axis was calibrated to the magic angle using KBr.
^7Li NMR spectra were acquired using […] the same instrumentation used for ^13C NMR. Protocols and pulse sequences were modified to enhance cross-polarization of ^7Li nuclei. Spectra shown represent 16 signal averages with a 0.05 second acquisition time and a 256 second recycle delay between scans. A pulse length of 2 μs was used to maintain a flip angle of less than π/6.
To evaluate the hypothesis that suppression of lithium coordination and incorporation of rigid molecular species can mobilize lithium, solid state NMR spectroscopy of ^7Li was performed to evaluate changes in lithium linewidths as a means of measuring changes in lithium mobility. Static ^7Li NMR spectra indicate the degree of chemical shift anisotropy that the lithium atoms experienced in each salt mixture. […] If the magnetic moment is dependent on the crystallographic orientation, then the lithium is more heavily interacting with the surrounding atoms.

[5] = Phase characterization / miscibility with [Li][TFSI] (DSC); assay type: physicochemical; conditions: for eutectic composition / miscibility gap onset (single phase solid to binary phase solid transition): mixtures with [Li][TFSI]
Description: The physical properties of the electrolytes, including solubility, thermal stability, phase transition temperatures, viscosity, and density were measured using a combination of accepted characterization techniques, including differential scanning calorimetry (DSC—measurement of phase transition temperatures), thermogravimetric analysis (TGA—measurement of thermal stability), particle-tracking micro-rheology (viscosity), and hydrometer (density). […] Phase transition temperatures, densities, and viscosities were seen to be dependent on the structures of diamondoid salts, as well as presence of additional “dopant” species, such as lithium salts, other diamondoid salts, or solvent molecules. Melting transitions ranged from below room temperature (below: 15° C.) to above 100° C., which spans the entire definition of an “ionic liquid,” range, as well as “organic plastic crystal” electrolyte range.
[Li][TFSI] and organic salt mixtures were melted together under vacuum at 100° C. The melting point of [DiamImMe][TFSI] and [AdImAd][TFSI] exceeded 100° C., so mixtures with those salts were melted and dried at 150° C. Heating was avoided above 150° C. as [Li][TFSI] is reported to undergo an oxidation reaction at temperatures approaching the melting point of pure [Li][TFSI]. After two days, samples were moved to a nitrogen glove box. Water and oxygen levels in the glovebox were monitored to be less than 0.5 ppm.
Differential scanning calorimetry (DSC) was performed using a TA instruments Q100. Samples were sealed in hermetic pans inside of a glovebox. [AdImMe][TFSI], [Me2AdImMe][TFSI], [DiamImMe][TFSI], and [AdImAd][TFSI] samples were equilibrated at −50° C., held at that temperature for three minutes, and then heated to 250° C. at a rate of 2° C. per minute. [C14MIm][TFSI] samples were cooled at a rate of 1° C. per minute to −50° C., held at that temperature for three minutes, and then heated to 250° C. at 2° C. per minute. […] Since no phase change was present, these faster scans were performed to look for the dissolving of [Li][TFSI].

## 1-ethyl-3-methylimidazolium bis(trifluoromethylsulfonyl)imide
[1]
  phase transition via Raman spectroscopy: 0.2 mole fraction [Li][TFSI]
[2]
  cathodic stability: pronounced cathodic decomposition

## Cn1cc[n+](C23CC4CC(CC(C4)C2)C3)c1.[Br-]
other
  melting point: 230 to 234.1 °C

## Cn1cc[n+](C23CC4C5CC6CC4C(C2)C(C6)C5C3)c1 [Compound 5, 3-(diamantan-4-yl)-1-methylimidazolium bis(trifluoromethane)sulfonimide]
[3]
  TFSI Raman shift: 743 cm⁻¹
[4]
  Peak Width: 1634 Hz
[5]; lithium salt in the diamondoid salt
  miscibility with lithium bis(trifluorosulfonyl)imide: up to 50 mol %
[5]
  eutectic composition: ~0.5 mol fraction [Li][TFSI]
  miscibility gap onset (single phase solid to binary phase solid transition): 0.2 mol fraction [Li][TFSI]

## CCCCCCCCCCn1cc[n+](C)c1.O=S(=O)([N-]S(=O)(=O)C(F)(F)F)C(F)(F)F [[C10MIm][TFSI], 1-decyl-3-methylimidazolium TFSI, reference compound]
[3]
  TFSI Raman shift: 742 cm⁻¹
[3]; listed as [C10ImMe][TFSI]
  TFSI Raman shift: ca. 742 cm^−1

## O=S(=O)([N-]S(=O)(=O)C(F)(F)F)C(F)(F)F.[Li+] [[Li][TFSI], lithium bis(trifluorosulfonyl)imide, reference compound]
[3]
  TFSI Raman shift: ca. 747 cm^−1
[3]; listed as Li
  TFSI Raman shift: 747 cm⁻¹

## C[n+]1ccn(C23CC4CC(CC(C4)C2)C3)c1.O=S(=O)([N-]S(=O)(=O)C(F)(F)F)C(F)(F)F [[AdImMe][TFSI]]
[3]
  change of TFSI Raman spectrum in equimolar mixture with [Li][TFSI]: no statistical change
  TFSI Raman shift: ca. 745 cm^−1
[3]; listed as AdImMe
  TFSI Raman shift: 745 cm⁻¹
[4]; 0.1 mole fraction [Li][TFSI] mixture
  peak thinner than 0.1 mole fraction [Li][TFSI] in N-ethyl-N-methylpyrrolidinium bis(fluorosulfonyl)imide mixture: 10%
[4]
  Peak Width: 454 Hz
[5]
  eutectic composition: ~0.5 mol fraction [Li][TFSI]
  miscibility gap onset (single phase solid to binary phase solid transition): 0.2 mol fraction [Li][TFSI]

## [Br-].c1c[n+](C23CC4CC(CC(C4)C2)C3)cn1C12CC3CC(CC(C3)C1)C2 [Compound 4, 1,3-bis(adamantan-1-yl)imidazolium bromide]
other
  melting point: 327.5 to 329.9 °C

## C[n+]1ccn(C23CC4CC(C)(CC(C)(C4)C2)C3)c1.O=S(=O)([N-]S(=O)(=O)C(F)(F)F)C(F)(F)F [[Me2AdImMe][TFSI]]
[3]
  TFSI Raman shift: 741 cm⁻¹

## CCCCCCCCCCCCCCn1cc[n+](C)c1.O=S(=O)([N-]S(=O)(=O)C(F)(F)F)C(F)(F)F [[C14MIm][TFSI], 1-tetradecyl-3-methylimidazolium TFSI, reference compound]
[3]
  TFSI Raman shift: 742 cm⁻¹
[3]; listed as [C14ImMe][TFSI]
  TFSI Raman shift: ca. 742 cm^−1

## O=S(=O)([N-]S(=O)(=O)C(F)(F)F)C(F)(F)F.c1c[n+](C23CC4CC(CC(C4)C2)C3)cn1C12CC3CC(CC(C3)C1)C2 [[AdImAd][TFSI]]
[3]
  change of TFSI Raman spectrum in equimolar mixture with [Li][TFSI]: essentially eliminated
  TFSI Raman shift: ca. 740 cm^−1
[3]; listed as AdImAd
  TFSI Raman shift: 740 cm⁻¹
[4]
  Peak Width: 3159 Hz
